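How tested: cells in 96-well plates exposed to compound for 48 hours at five concentrations. Abbreviation: GI50, concentration required for 50% inhibition of growth. TGI marks complete inhibition of growth.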
Assays:
Assay in all cases: inhibition of tumour cell growth, NCI panel, 48 h
[1] = tested on: HOP-92 NSCLC
[2] = tested on: SF-295 CNS
[3] = tested on: OVCAR-4 ovarian
[4] = tested on: NCI-H23 lung
[5] = tested on: EKVX NSCLC
[6] = tested on: NCI-H522 lung
[7] = tested on: IGROV1 ovarian
[8] = tested on: SW-620 colon
[9] = tested on: SF-539 CNS
[10] = tested on: MALME-3M melanoma
[11] = tested on: U251 CNS
[12] = tested on: HCC-2998 colon
[13] = tested on: SK-MEL-2 melanoma
[14] = tested on: SF-268 CNS
[15] = tested on: HL-60(TB) leukemia
[16] = tested on: RXF 393 renal
[17] = tested on: UACC-62 melanoma
[18] = tested on: SK-OV-3 ovarian
[19] = tested on: MDA-MB-231 breast
[20] = tested on: SNB-19 CNS
[21] = tested on: TK-10 renal
[22] = tested on: HS 578T breast
[23] = tested on: CCRF-CEM leukemia
[24] = tested on: A498 renal
[25] = tested on: MOLT-4 leukemia
[26] = tested on: M14 melanoma
[27] = tested on: HOP-62 NSCLC
[28] = tested on: SNB-75 CNS
[29] = tested on: BT-549 breast
[30] = tested on: MDA-MB-435
[31] = tested on: K-562 leukemia
[32] = tested on: 786-0 renal
[33] = tested on: SR leukemia
[34] = tested on: DU-145 prostate
[35] = tested on: SK-MEL-28 melanoma
[36] = tested on: UACC-257 melanoma
[37] = tested on: UO-31 renal
[38] = tested on: SK-MEL-5 melanoma
[39] = tested on: CAKI-1 renal
[40] = tested on: NCI/ADR-RES ovarian
[41] = tested on: SN12C renal
[42] = tested on: RPMI-8226 leukemia
[43] = tested on: HCT-116 colon
[44] = tested on: HCT-15 colon
[45] = tested on: OVCAR-8 ovarian
[46] = tested on: OVCAR-3 ovarian
[47] = tested on: OVCAR-5 ovarian
[48] = tested on: A549 NSCLC
[49] = tested on: ACHN renal
[50] = tested on: NCI-H460 lung
[51] = tested on: HT29 colon
[52] = tested on: PC-3 prostate

Molecule CCCCN1C(=O)/C(=c2\sc3n(c2=O)C2C(NN=3)N(CC)C(=O)N2CC)c2ccccc21 (stereo unspecified) has a GI50 [1] of 1070 nM, a TGI [1] of 4580 nM and a GI50 [2] of 456 nM. The TGI [2] was 2260 nM, the GI50 [3] was 909 nM and the TGI [3] was 4830 nM. The GI50 [4] was 1770 nM, the TGI [4] was over 35000 nM and the GI50 [5] was 1380 nM. It also gave a TGI [5] of over 100000 nM, a GI50 [6] of 508 nM and a TGI [6] of 3440 nM. The GI50 [7] was 764 nM, the TGI [7] was 3600 nM and the GI50 [8] was 442 nM. It also gave a TGI [8] of over 100000 nM, a GI50 [9] of 371 nM and a TGI [9] of 1460 nM. The GI50 [10] was 639 nM, the TGI [10] was 3270 nM and the GI50 [11] was 773 nM. For the same molecule, the TGI [11] was 3390 nM, the GI50 [12] was 1380 nM and the TGI [12] was 3810 nM. It also gave a GI50 [13] of 1470 nM, a TGI [13] of 5750 nM and a GI50 [14] of 959 nM. It also gave a TGI [14] of 4710 nM, a GI50 [15] of 1050 nM and a TGI [15] of 3460 nM. For the same molecule, the GI50 [16] was 365 nM, the TGI [16] was 2230 nM and the GI50 [17] was 502 nM. For the same molecule, the TGI [17] was 3550 nM, the GI50 [18] was 911 nM and the TGI [18] was 5890 nM. The GI50 [19] was 1380 nM, the TGI [19] was 3740 nM and the GI50 [20] was 1610 nM. For the same molecule, the TGI [20] was 28100 nM, the GI50 [21] was 1820 nM and the TGI [21] was 6260 nM. It also gave a GI50 [22] of 749 nM, a TGI [22] of 6040 nM and a GI50 [23] of 1810 nM. For the same molecule, the TGI [23] was over 100000 nM, the GI50 [24] was 169 nM and the TGI [24] was 721 nM. For the same molecule, the GI50 [25] was 2730 nM, the TGI [25] was over 100000 nM and the GI50 [26] was 479 nM. It also gave a TGI [26] of 2310 nM, a GI50 [27] of 1210 nM and a TGI [27] of 4950 nM. For the same molecule, the GI50 [28] was 258 nM, the TGI [28] was 1560 nM and the GI50 [29] was 1760 nM. For the same molecule, the TGI [29] was 9190 nM, the GI50 [30] was 255 nM and the TGI [30] was 655 nM. For the same molecule, the GI50 [31] was 542 nM, the TGI [31] was over 100000 nM and the GI50 [32] was 1140 nM. The TGI [32] was 4180 nM and the GI50 [33] was 360 nM.
COc1cc2nc(-c3cccc4cccnc34)nc(NC3CCN(Cc4ccccc4)CC3)c2cc1OC was tested, and the GI50 [1] was 1590 nM, the TGI [1] was 3360 nM and the GI50 [34] was 1280 nM. The TGI [34] was 2590 nM, the GI50 [2] was 1440 nM and the TGI [2] was 3090 nM. The GI50 [3] was 1110 nM, the TGI [3] was 2710 nM and the GI50 [35] was 1820 nM. For the same molecule, the TGI [35] was 3600 nM, the GI50 [4] was 1370 nM and the TGI [4] was 3110 nM. It also gave a GI50 [36] of 2070 nM, a TGI [36] of 4100 nM and a GI50 [37] of 1430 nM. It also gave a TGI [37] of 2880 nM, a GI50 [38] of 1660 nM and a TGI [38] of 3180 nM. It also gave a GI50 [39] of 1370 nM, a TGI [39] of 2980 nM and a GI50 [5] of 1480 nM. It also gave a TGI [5] of 3300 nM, a GI50 [6] of 1450 nM and a TGI [6] of 3980 nM. For the same molecule, the GI50 [7] was 930 nM, the TGI [7] was 2310 nM and the GI50 [8] was 509 nM. It also gave a TGI [8] of 2010 nM, a GI50 [40] of 2100 nM and a TGI [40] of 5610 nM. It also gave a GI50 [9] of 1400 nM, a TGI [9] of 2920 nM and a GI50 [10] of 1830 nM. The TGI [10] was 3510 nM, the GI50 [11] was 1050 nM and the TGI [11] was 2550 nM. It also gave a GI50 [41] of 1110 nM, a TGI [41] of 2580 nM and a GI50 [42] of 1600 nM. The TGI [42] was 4540 nM, the GI50 [12] was 1720 nM and the TGI [12] was 3160 nM. For the same molecule, the GI50 [43] was 158 nM, the TGI [43] was 338 nM and the GI50 [44] was 1110 nM. For the same molecule, the TGI [44] was 2430 nM, the GI50 [13] was 1680 nM and the TGI [13] was 3530 nM. The GI50 [14] was 1140 nM, the TGI [14] was 2980 nM and the GI50 [45] was 647 nM. For the same molecule, the TGI [45] was 2640 nM, the GI50 [46] was 1520 nM and the TGI [46] was 3080 nM. For the same molecule, the GI50 [17] was 2000 nM, the TGI [17] was 4020 nM and the GI50 [18] was 1560 nM. It also gave a TGI [18] of 3220 nM, a GI50 [19] of 1360 nM and a TGI [19] of 2750 nM. It also gave a GI50 [47] of 1300 nM, a TGI [47] of 2730 nM and a GI50 [20] of 1340 nM. For the same molecule, the TGI [20] was 3160 nM, the GI50 [21] was 1520 nM and the TGI [21] was 2980 nM. The GI50 [48] was 560 nM, the TGI [48] was 1940 nM and the GI50 [49] was 773 nM. It also gave a TGI [49] of 2080 nM, a GI50 [22] of 2070 nM and a TGI [22] of 4810 nM. The GI50 [23] was 576 nM, the TGI [23] was 2830 nM and the GI50 [24] was 1830 nM. For the same molecule, the TGI [24] was 3390 nM, the GI50 [25] was 325 nM and the TGI [25] was 1810 nM. It also gave a GI50 [26] of 1520 nM, a TGI [26] of 3400 nM and a GI50 [27] of 1230 nM. It also gave a TGI [27] of 3050 nM, a GI50 [28] of 1840 nM and a TGI [28] of 3560 nM. The GI50 [50] was 351 nM, the TGI [50] was 1230 nM and the GI50 [29] was 1580 nM. The TGI [29] was 3360 nM, the GI50 [30] was 1560 nM and the TGI [30] was 3080 nM. For the same molecule, the GI50 [51] was 419 nM, the TGI [51] was 1850 nM and the GI50 [32] was 1200 nM. The TGI [32] was 2690 nM, the GI50 [52] was 1360 nM and the TGI [52] was 2830 nM.

Source: PubChem BioAssay (NCI)
